From ChEMBL document CHEMBL3044621, “1-(7-Chloroquinolin-4-yl)-2-[(1H-pyrrol-2-yl)methylene]hydrazine: a potent compound against cancer” (Med Chem Res, 2012)
In brackets after ≈: the same amount, converted by molar mass.

Key:
HCT-8 [1] = test: Cytotoxicity against Homo sapiens (human) HCT8 cells after 72 hr by MTT assay; type: functional, cell-based; conditions: HCT-8, 72 h
MDA-MB-435 [2] = test: Cytotoxicity against Homo sapiens (human) MDA-MB-435 cells after 72 hr by MTT assay; type: functional, cell-based; conditions: MDA-MB-435, 72 h
MDA-MB-435 [3] = test: Ratio of doxorubicin IC50 to compound IC50 for Homo sapiens (human) MDA-MB-435 cells; type: functional
HL-60 = test: Cytotoxicity against Homo sapiens (human) HL60 cells after 72 hr by MTT assay; type: functional, cell-based; conditions: HL-60, 72 h
SF-295 [4] = test: Cytotoxicity against Homo sapiens (human) SF295 cells after 72 hr by MTT assay; type: functional, cell-based; conditions: SF-295, 72 h
HCT-8 [5] = test: Cytotoxicity against Homo sapiens (human) HCT8 cells assessed as growth inhibition at 25 ug/ml after 72 hr by MTT assay; type: functional; conditions: HCT-8, 72 h, read-out: GI
MDA-MB-435 [6] = test: Cytotoxicity against Homo sapiens (human) MDA-MB-435 cells assessed as growth inhibition at 25 ug/ml after 72 hr by MTT assay; type: functional; conditions: MDA-MB-435, 72 h, read-out: GI
SF-295 [7] = test: Cytotoxicity against Homo sapiens (human) SF295 cells assessed as growth inhibition at 25 ug/ml after 72 hr by MTT assay; type: functional; conditions: SF-295, 72 h, read-out: GI

| Compound | IC50 (HCT-8 [1]) [µg/mL] | IC50 (MDA-MB-435 [2]) [µg/mL] | Ratio IC50 (MDA-MB-435 [3]) | IC50 (HL-60) [µg/mL] | IC50 (SF-295 [4]) [µg/mL] | inhibition of growth at 25 µg/mL (HCT-8 [5]) [%] | inhibition of growth at 25 µg/mL (MDA-MB-435 [6]) [%] | inhibition of growth at 25 µg/mL (SF-295 [7]) [%] |
| --- | --- | --- | --- | --- | --- | --- | --- | --- |
| COc1cccc2c1C(=O)c1c(O)c3c(c(O)c1C2=O)C[C@@](O)(C(=O)CO)C[C@@H]3O[C@H]1C[C@H](N)[C@H](O)[C@H](C)O1 [DOXORUBICIN] | 0.01 (≈ 0.0184 µM) | – | – | – | – | – | – | – |
| Clc1ccc2c(N/N=C/c3ccc[nH]3)ccnc2c1 | 0.441 (≈ 1.63 µM) | 0.117 (≈ 0.431 µM) | 4 | 0.0952 (≈ 0.352 µM) | 0.527 (≈ 1.95 µM) | 100 | 100 | 100 |
| O=[N+]([O-])c1ccc(/C=N/Nc2ccnc3cc(Cl)ccc23)o1 | – | – | – | – | – | 24.1 | 38 | 7.53 |
| Clc1ccc2c(N/N=C/c3ncc[nH]3)ccnc2c1 | – | – | – | – | – | 34 | 82.6 | 30.2 |
| Clc1ccc2c(N/N=C/c3cccs3)ccnc2c1 | – | – | – | – | – | 21.1 | 21.6 | 1.03 |
| O=[N+]([O-])c1ccc(/C=N/Nc2ccnc3cc(Cl)ccc23)s1 | – | – | – | – | – | 49 | 42.1 | 33.4 |
| Clc1ccc2c(N/N=C/c3ccco3)ccnc2c1 | – | – | – | – | – | 53.2 | 68.5 | 61.9 |
